# Laboratory results as given in patent publication US9271946B2, “Use of a RAR antagonist or inverse agonist for the treatment of chemotherapy and/or radiation therapy side effects” (IO Therapeutics, Inc., priority 2006, dated 2016).
# Experiments:
# RAR = experiment: transactivation assays; type: cell-based
# Description: An assay that can be used to determine the agonist activity in the RARα, RARβ and RARγ receptor subtypes is described in Feigner, P. L., and Holm, M., FOCUS, 11:2, 21+ (1989) and U.S. Pat. Nos. 5,455,265 and 7,166,726, all of which are incorporated herein by reference in their entirety.
# [1] = test system: CPM-induced leukopenic male BDF1 mice; experiment: cyclophosphamide-induced mouse model of leukopenia, blood cell recovery (Example 1); type: in vivo; details: for lymphocyte counts: mean±SEM
# Description: Mice purchased from Charles River Laboratories (Wilmington, Mass.) were housed individually in micro-isolater cages in a 12-hour light/dark cycle. They were housed under pathogen-free conditions, and received a normal standard diet and water ad libitum. They were acclimated for one week at the Association for Assessment and Accreditation of Laboratory Animal Care (AAALAC) accredited animal facility (Allergan Inc., Irvine, Calif.) prior to experiments. Study designs were approved by the Institutional Animal Care and Use Committee. Body weights were monitored throughout each study. Weight of the mice was in the range of 22-27 g at the day of treatment initiation. The mice were healthy, not previously used in other experimental procedures.
# Leukopenia was induced in male BDF1 mice (C57Bl×DBA2, 7.5-12 weeks) by an intra-peritoneal (i.p.) injection of 200 mg/kg Cyclophosphamide (CPM, Sigma-Aldrich, Saint Louis, Mo.) in 0.2 ml saline. The effect of VTP 194310 on leukocyte recovery was evaluated by oral gavage of animals with 1 mg/kg of VTP 194310 as indicated in the results section. VTP 194310 (dissolved in DMSO) was diluted through peanut oil as the vehicle (dosed at 5 ml/kg). Control mice were given DMSO and vehicle alone. As a positive control, granulocytopoiesis was stimulated in CPM-treated mice by a single sub-cutaneous injection of 10 μg/kg pegylated recombinant methionyl human granulocyte colony-stimulating factor (PEG-r-metHuG-CSF) (Neulasta, Pegfilgrastim; Amgen, Thousand Oaks, Calif.) on day 2. Three separate experiments were performed.
# Peripheral blood (60 μl) was collected under anaesthesia from the retroorbital sinus of the mice with heparinized capillary tubes and transferred to EDTA-coated microtainer tubes (Becton Dickinson, Franklin Lakes, N.J.). White cell, neutrophil, and lymphocyte counts were obtained for at least three mice per group by diluting the blood 1:4 with PBS containing 5% bovine serum albumin (Fraction V; Sigma, Saint Louis, Mo.), and by using an Advia 120 Hematology System (Bayer HealthCare Diagnostics Division, Tarrytown, N.Y.).
# [2] = test system: CPM-induced neutropenic male BDF1 mice; experiment: mono-therapy and combination therapy on neutrophil recovery in CPM-induced neutropenic mice (Example 4); type: in vivo, mouse
# Method: VTP 194310 DMSO stock solution was made by weighing out VTP 194310 and dissolved in DMSO (25 mg/1.33 ml DMSO). This stock solution was then mixed with Vehicle (39.2 ml Corn Oil+0.8 ml DMSO).
# The 3.0 mg/kg VTP194310 solution was made by mixing 39.2 ml Corn Oil+0.8 ml VTP 194310 DMSO Stock.
# The 1.0 mg/kg VTP194310 solution was made by diluting the VTP194310 DMSO Stock 1:3 with DMSO (e.g. 1 ml DMSO+0.5 ml 4310 Stock), and then combining 39.2 ml Corn Oil+0.8 ml of the diluted VTP194310 Stock.
# The 1 and 10 μg/kg PEG-G-CSF solutions were made by diluting 6 mg/ml stock with PBS.
# Male BDF1 mice (C57Bl×DBA2), 7-8 weeks old, DOB: 1 Jun. 2006) were used in this experiment.
# 35 μl of blood (via the submandibular vein) were collected according to the scheduled time points or until the full recovery of blood cells and platelets. The blood samples were analyzed after 1:5 dilution with PBS saline containing 2% BSA (Fraction V) and 0.2 mM EDTA on the Hematology Analyzer Cell-DYN 3700 (Abbott Diagnostics).
# Each group of mice were treated with vehicle, VTP 194310 at 3 mg/kg, PEG-G-CSF at 1 or 10 μg/kg, and CPM at 150 mg/kg. The mean numbers of total white blood cells (WBC), neutrophils, lymphocytes, red blood cells (RBC) and platelets and standard error (SE) for data obtained for each treated group are shown in FIG. 4. […] Combination treatment with VTP 194310 and PEG-G-CSF further increased recovery.
# [3] = test system: 5-FU-induced neutropenic male BDF1 mice; experiment: monotherapy and combination therapy on neutrophil recovery in 5-FU-induced neutropenic mice (Example 5); type: in vivo, mouse
# Method: VTP194310 DMSO Stock solution was made by weighing out VTP194310 and dissolving it in DMSO (25 mg/1.33 ml DMSO).
# The Vehicle solution was made by mixing 39.2 ml Corn Oil+0.8 ml DMSO.
# The 3.0 mg/kg VTP194310 solution was made by mixing 39.2 ml Corn Oil+0.8 ml VTP 194310 DMSO Stock solution.
# The 150 mg/kg 5-FU solution was made by weighing out 187.5 mg 5-FU and mixing it with 10 g saline.
# The 10 μg/kg PEG-G-CSF solution was made by diluting 6 mg/ml stock with PBS.
# Male BDF1 mice (C57Bl×DBA2), 9 weeks old, DOB: 26 Jun. 2006) were used in this experiment.
# Each group of mice were treated with 150 mg/kg 5-FU intravenously on Day 0, vehicle or VTP194310 orally by gavage at 3 mg/kg/day on Days 2 to 4, and/or subcutaneously with PEG-G-CSF at 10 μg/kg on Days 5, 6, or 7 according to the regimens listed in the table. The mean numbers of total white blood cells (WBC), neutrophils, lymphocytes, red blood cells (RBC) and platelets and standard error (SE) of data obtained for each treated group are shown in FIG. 6.
# [4] = 1 mg/kg oral at days −4 to −1 and at days 0 to 3
# [5] = day 8, 1 mg/kg oral at days −4 to −1 and at days 0 to 3, CPM day 0
structure (smiles),measurement,setting,value
"CCc1ccc(C2=CC(C)(C)Sc3ccc(C#Cc4ccc(C(=O)O)cc4)cc32)cc1 [VTP 194310, 4-[[4-(4-ethylphenyl)-2,2-dimethyl-(2H)-thiochromen-6-yl]-ethynyl]-benzoic acid]",activity in transactivation assays,RAR; agonist activity,no activity
same,gene transcriptional activity induced by ATRA and other RAR agonists,RAR; antagonism,blocks the gene transcriptional activity
same,numbers of leukocytes and neutrophils generated,[1]; 1 mg/kg oral at days 4 to 7,"improved the numbers of leukocytes and neutrophils generated, but to an extent that was considerably less"
same,earliest day with significant differences in recovery,[1]; [4],5 day post-CPM
same,rise of leukocyte and neutrophil counts compared to control leukopenic mice,[1]; [4],rose quicker
same,leukocyte recovery,"[1]; CPM 200 mg/kg i.p., 1 mg/kg oral gavage",improved leukocyte recovery
same,leukocyte counts in blood versus mice treated with CPM alone,[1]; [5],~3 fold
same,neutrophil counts in blood versus mice treated with CPM alone,[1]; [5],~3 fold
same,lymphocyte counts,"[1]; day 8, dosed days 0 to 3",4.49±0.52 ×10^3/μl
same,lymphocyte counts,"[1]; day 8, dosed days −4 to −1",4.53±0.39 ×10^3/μl
same,number of lymphocytes in blood compared to control leukopenic mice and Peg-r-metHuG-CSF mice,[1]; dosed days −4 to −1 and days 0 to 3,increased number of lymphocytes
same,effectiveness in enhancing neutrophil recovery compared to PEG-G-CSF at 10 μg/kg,[2]; CPM-induced mouse model,similarly effective
same,neutrophil recovery relative to control,"[2]; monotherapy, CPM 150 mg/kg Day 0, VTP 194310 1 or 3 mg/kg/day oral Days −1 to 1, PEG-G-CSF 1 or 10 μg/kg s.c. Day 2",enhanced neutrophil recovery
same,effectiveness in enhancing neutrophil recovery compared to PEG-G-CSF,"[3]; 3 mg/kg/day Days 2 to 4 vs PEG-G-CSF 10 μg/kg Days 5, 6, or 7",more effective than PEG-G-CSF
same,recovery of neutrophils relative to control,"[3]; monotherapy, 5-FU 150 mg/kg i.v. Day 0, VTP 194310 3 mg/kg/day oral Days 2 to 4, PEG-G-CSF 10 μg/kg s.c. Day 5, 6, or 7",improved the recovery of neutrophils
